In patent US11369565B2, “Amino-pyrimidine skeletal muscle modulators” (Cytokinetics, Inc., priority 2010, dated 2022):

test system: rabbit skeletal myofibrils (approximately 90% fast fibers); assay: Activation of fast skeletal myofibrils (PUMA coupled-enzyme ATPase assay at pCa25); format: biochemical; details: concentration at which the compound increased the enzymatic activity by 40%; calcium at pCa25; PM12 buffer pH 6.8
In short: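 Detergent-washed rabbit psoas myofibrils tested at calcium giving 25% of maximal rate (pCa25). ATPase activity tracked by pyruvate kinase/lactate dehydrogenase coupling, NADH oxidation read as absorbance at 340 nm, in PM12 buffer (12 mM Pipes, 2 mM MgCl2, 1 mM DTT, pH 6.8).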

| Mean AC1.4 | Compound |
| --- | --- |
| D (D=>20 uM) | CC(C)(Nc1ncc(-c2cnc(N)nc2)cn1)c1ncccc1F [[5-(2-aminopyrimidin-5-yl)pyrimidin-2-yl][1-(3-fluoro(2-pyridyl))-isopropyl]amine] |
| C (C=10-20 uM) | O=C(Nc1ccn[nH]1)c1cnc(NCC2(c3ncccc3F)CCC2)nc1 [[2-({[(3-fluoro(2-pyridyl))cyclobutyl]methyl}amino)pyrimidin-5-yl]-N-pyrazol-5-ylcarboxamide] |
| D (D=>20 uM) | CC(C)(Nc1ncc(-c2nc(CNC(=O)[C@H]3CCCN3)cs2)cn1)c1ncccc1F [((2R)pyrrolidin-2-yl)-N-{[2-(2-{[1-(3-fluoro(2-pyridyl))-isopropyl]amino}pyrimidin-5-yl)(1,3-thiazo-4-yl)]methyl}carboxamide] |
| B (B=1-10 uM) | Cc1cc(NC2CCCCC2)nc(N[C@H](C)c2ccccc2)n1 [((1R)-1-phenylethyl)[4-(cyclohexylamino)-6-methylpyrimidin-2-yl]amine] |
| D (D=>20 uM) | CC(C)(Nc1ncccn1)c1ncccc1Cl [[1-(3-chloro(2-pyridyl))-isopropyl]pyrimidin-2-ylamine] |
| B (B=1-10 uM) | Nc1ccc(-c2cnc(NC[C@]3(c4ncccc4F)C[C@H](F)C3)nc2)nn1 [[5-(6-aminopyridazin-3-yl)pyrimidin-2-yl]{[3-fluoro-1-fluoro(2-pyridyl))cyclobutyl]methyl}amine] |
| B (B=1-10 uM) | Nc1ncc(F)c(-c2cnc(NC[C@]3(c4ncccc4F)C[C@H](F)C3)nc2)n1 [[5-(2-amino-5-fluoropyrimidin-4-yl)pyrimidin-2-yl]{[3-fluoro-1-(3-fluoro(2-pyridyl))cyclobutyl]methyl}amine] |
| B (B=1-10 uM) | CC(C)(Nc1ncc(-c2cn[nH]c2)cn1)c1ncccc1Cl [[1-(3-chloro(2-pyridyl))-isopropyl](5-pyrazol-4-ylpyrimidin-2-yl)amine] |
| D (D=>20 uM) | Cc1cc(NC(=O)c2cnc(NCC3(c4ncccc4F)CCC3)nc2)[nH]n1 [[2-({[(3-fluoro(2-pyridyl))cyclobutyl]methyl}amino)pyrimidin-5-yl]-N-(3-methylpyrazol-5-yl)carboxamide] |

The next lines start with the compound.

| Compound | Mean AC1.4 |
| --- | --- |
| NC(=O)c1n[nH]c2cc(F)c(-c3cnc(NC4(c5ncccc5F)CCC4)nc3)cc12 [6-fluoro-5-(2-{[(3-fluoro(2-pyridyl))cyclobutyl]amino}pyrimidin-5-yl)-1H-indazole-3-carboxamide] | A (A=<1 uM) |
| O=C(O)c1ccn(-c2cnc(NC[C@]3(c4ncccc4F)C[C@H](F)C3)nc2)c1 [1-[2-({[3-fluoro-1-(3-fluoro(2-pyridyl))cyclobutyl]methyl}amino)pyrimidin-5-yl]pyrrole-3-carboxylic acid] | D (D=>20 uM) |
| O=C(O)c1csc(-c2cnc(NCC3(c4ncccc4F)CCC3)nc2)n1 [2-[2-({[(3-fluoro-2-pyridyl)cyclobutyl]methyl}amino)pyrimidin-5-yl]-1,3-thiazole-4-carboxylic acid] | C (C=10-20 uM) |
| CC(C)(Nc1ncc(-c2cc(C#N)ccn2)cn1)c1ncccc1Cl [2-(2-{[1-(3-chloro(2-pyridyl))-isopropyl]amino}pyrimidin-5-yl)pyridine-4-carbonitrile] | C (C=10-20 uM) |
| CC(C)(Nc1ncc(-c2cnc(C(N)=O)s2)cn1)c1ncccc1Cl [5-(2-{[1-(3-chloro(2-pyridyl))-isopropyl]amino}pyrimidin-5-yl)-1,3-thiazole-2-carboxamide] | B (B=1-10 uM) |
| CC(C)(Nc1ncc(-c2csc(C(N)=O)c2)cn1)c1ncccc1Cl [4-(2-{[1-(3-chloro(2-pyridyl))-isopropyl]amino}pyrimidin-5-yl)thiophene-2-carboxamide] | B (B=1-10 uM) |
| O=C(O)CNC(=O)c1cnc(NCC2(c3ncccc3F)CCC2)nc1 [2-{[2-({[(3-fluoro-2-pyridyl)cyclobutyl]methyl}amino)pyrimidin-5-yl]carbonylamino} acetic acid] | D (D=>20 uM) |
| CC(=O)N1CCc2nc(NCC(C)(C)c3ccc(F)cc3)ncc2C1 [6-acetyl-2-{[2-(4-fluorophenyl)-2-methylpropyl]amino}-5,6,7,8-tetrahydropyridino[4,3-d]pyrimidine] | D (D=>20 uM) |
| CC(C)(Nc1ncc(-c2cc(C(N)=O)ccn2)cn1)c1ncccc1Cl [2-(2-{[1-(3-chloro(2-pyridyl))-isopropyl]amino}pyrimidin-5-yl)pyridine-4-carboxamide] | B (B=1-10 uM) |
| CC(C)(O)c1cnn(-c2cnc(NC(C)(C)c3ncccc3Cl)nc2)c1 [2-[1-(2-{[1-(3-chloro(2-pyridyl))-isopropyl]amino}pyrimidin-5-yl)pyrazol-4-yl]propan-2-ol] | D (D=>20 uM) |
| CSc1cccnc1C(C)(C)Nc1ncc(-c2cccc(C#N)c2)cn1 [3-(2-{[1-methyl-1-(3-methylthio(2-pyridyl))ethyl]amino}pyrimidin-5-yl)benzenecarbonitrile] | B (B=1-10 uM) |
| O=C1Cc2cccc(-c3cnc(NC[C@]4(c5ncccc5F)C[C@H](F)C4)nc3)c2N1 [7-[2-({[3-fluoro-1-(3-fluoro(2-pyridyl))cyclobutyl)]methyl}amino) pyrimidin-5-yl]indolin-2-one] | B (B=1-10 uM) |
| [5-(2-{[1-(3-chloro(2-pyridyl))- isopropyl}amino}pyrimidin-5-yl)(1H- indazol-3-yl)]methylsulfonyl)amine | A (A=<1 uM) |
| CC(C)(Nc1ncc(-c2noc(C(N)=O)n2)cn1)c1ncccc1Cl [3-(2-{[1-(3-chloro(2-pyridyl))-isopropyl]amino}pyrimidin-5-yl)-1,2,4-oxadiazole-5-carboxamide] | D (D=>20 uM) |
| 2-{[2-(4-f1uorophenyl)-2- methylpropyl]amino}-5,6,7,8- tetrahydropyridino[4,3- d]pyrimidine-6-carboxamide | D (D=>20 uM) |
| Nc1ncc(-c2cnc(NC[C@]3(c4ncccc4F)C[C@H](F)C3)nc2)[nH]c1=O [3-amino-6-[2-({[3-fluoro-1-(3-fluoro(2-pyridyl))cyclobutyl]methyl}amino)pyrimidin-5-yl] hydropyrazin-2-one] | B (B=1-10 uM) |
| NC(=O)c1cnc(NCC2(c3ncccc3F)CCC2)nc1 [2-({[(3-fluoro-2-pyridyl)cyclobutyl]methyl}amino) pyrimidine-5-carboxamide] | D (D=>20 uM) |
| CC(C)(Nc1ncc(-c2cc(C#N)ccc2F)cn1)c1ncccc1C(F)F [3-[2-({1[3-(difluoromethyl)(2-pyridyl)]-isopropyl}amino)pyrimidin-5-yl]-4-fluorobenzenecarbonitrile] | B (B=1-10 uM) |
| CC(C)(CNc1ncc(C(=O)NC2(C(N)=O)CC2)cn1)c1ccc(F)cc1 [1-[(2-{[2-(4-fluorophenyl)-2-methylpropyl]amino}pyrimidin-5-yl)carbonylamino] cyclopropanecarboxamide] | D (D=>20 uM) |
